This is an account of results in patent US11613525B2 (CTXT PTY LIMITED, priority 2018, dated 2023).

For experiment [1], the target named is T1, human STING (HAQ) (Homo sapiens, UniProt Q86WV6, G230A/H232R/R293Q). The experiment is described as follows: biochemical. Type of experiment: binding. As to conditions: for DSF huSTING (HAQ) ΔTm (° C.): 1 μM protein, compound at 100 μM; for ΔTm at 100 µM: read-out: DSF huSTING (HAQ) ΔTm (° C.). The procedure: (§1) DSF monitors thermal unfolding of protein in the presence of a fluorescent dye and is typically performed using a real-time PCR instrument. The temperature at which a protein unfolds is measured by an increase in the fluorescence of a dye with affinity for hydrophobic parts of the protein that are gradually exposed during unfolding. The fluorescence of the dye is quenched in aqueous environments, but when the dye associates with hydrophobic sites on the unfolded protein, its fluorescence increases. The fluorescence intensity is plotted as a function of the temperature, generating a sigmoidal curve that can be described by a two-state transition. The inflection point of the transition curve (Tm) is calculated using simple equations such as that of Boltzman.
(§2) Sealed plates were then placed into a Bio-Rad CFX96/C1000 thermocycler and FRET scanning mode (λ^excitation of 490 nm and reads at λ^emission of 570 nm) was used to measure fluorescence intensity. […] The melting point (Tm) obtained for STING protein alone was subtracted from Tm obtained for protein incubated with ligand to generate ΔTm values listed in the table below.
(§3) These additional compounds were tested as described above, however the protein concentration was 2 μM.

Experiment [2] has as its target T2, huSTING (WT) (Homo sapiens (Human), UniProt Q86WV6, H232R). Briefly: Differential scanning fluorimetry (DSF), huSTING (WT). The class given is binding. Particulars: read-out: DSF huSTING (WT) ΔTm (° C.). The procedure: as §1, §2, §3
Target sequence in this assay (Q86WV6 other isoform, or with tags, fused parts or gaps, stated change not applied): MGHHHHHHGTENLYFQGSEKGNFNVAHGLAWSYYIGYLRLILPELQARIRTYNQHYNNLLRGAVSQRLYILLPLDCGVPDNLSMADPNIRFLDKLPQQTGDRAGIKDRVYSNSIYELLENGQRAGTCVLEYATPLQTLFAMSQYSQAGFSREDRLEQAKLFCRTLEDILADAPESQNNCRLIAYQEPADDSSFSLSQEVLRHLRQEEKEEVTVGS
The target of experiment [3] is huSTING (HAQ) (Homo sapiens (Human), UniProt Q86WV6, G230A/H232R/R293Q/R71H). Briefly: THP-1 reporter cell line assay, THP-1 STING Lucia ISG cells. As to conditions: THP-1 STING Lucia ISG cells; 24 h; top concentration 50 μM; read-out: Cellular EC50 huSTING (HAQ). The class given is cell-based.
Experiment [4] has as its target T2, huSTING (WT). Briefly: THP-1 reporter cell line assay, THP-1-Dual KI-hSTING-R232 cells. Particulars: read-out: Cellular EC50 huSTING (WT). Type of experiment: cell-based.
Target sequence in this assay (Q86WV6 whole entry H232R): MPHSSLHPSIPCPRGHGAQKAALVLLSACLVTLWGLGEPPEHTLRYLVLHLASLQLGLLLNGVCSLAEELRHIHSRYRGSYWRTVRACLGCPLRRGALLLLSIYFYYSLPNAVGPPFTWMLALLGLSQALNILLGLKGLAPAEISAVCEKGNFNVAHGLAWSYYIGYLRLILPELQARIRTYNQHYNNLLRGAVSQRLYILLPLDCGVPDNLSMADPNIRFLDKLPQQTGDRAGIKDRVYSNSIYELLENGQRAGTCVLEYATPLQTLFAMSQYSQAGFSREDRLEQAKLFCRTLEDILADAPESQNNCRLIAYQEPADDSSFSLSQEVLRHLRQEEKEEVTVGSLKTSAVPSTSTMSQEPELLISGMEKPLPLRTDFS
Experiment [5] addresses T1, human STING (HAQ). Particulars: read-out: SPR (HAQ) KD; 25° C.

T1 sequence (Q86WV6 whole entry G230A/H232R/R293Q, looked up): as the sequence (Q86WV6 whole entry H232R) above, with G230A, R293Q counted along it
Sequence of huSTING (HAQ) (Q86WV6 whole entry R71H/G230A/H232R/R293Q): as the sequence (Q86WV6 whole entry H232R) above, with R71H, G230A, R293Q counted along it

For the molecule `NC(=O)c1ccc(OCc2c(C(=O)O)sc3cccc(F)c23)cc1` [Example 1, 3-((4-Carbamoylphenoxy)methyl)-4-fluorobenzo[b]thiophene-2-carboxylic acid], the “DSF huSTING (HAQ) ΔTm (° C.)” value in experiment [1] was determined as 7.78 °C. The ΔTm at 100 µM in experiment [2] worked out at 0.99 °C. The concentration for a half-maximal effect (EC50) in experiment [3] and in experiment [4] was above 50 µM in each case. The dissociation constant (Kd) in experiment [5] was determined as 32 µM.

Regarding `NC(=O)c1ccc(OCc2c(C(=O)O)sc3ccccc23)cc1` [Example 6, 3-((4-Carbamoylphenoxy)methyl)benzo[b]thiophene-2-carboxylic acid], the “DSF huSTING (HAQ) ΔTm (° C.)” value in experiment [1] stood at 3.33 °C. Moreover, the thermal shift (ΔTm) at 100 µM in experiment [2] is -1.15 °C. The EC50 in experiment [3] and in experiment [4] was above 50 µM throughout. The Kd in experiment [5] amounted to 90 µM.

In the case of `NC(=O)c1ccc(OCc2c(C(=O)O)sc3cc(Cl)ccc23)cc1` [Example 10, 3-((4-carbamoylphenoxy)methyl)-6-chlorobenzo[b]thiophene-2-carboxylic acid], the “DSF huSTING (HAQ) ΔTm (° C.)” value in experiment [1] was 1.7 °C. Besides, the shift in melting temperature (ΔTm) at 100 µM in experiment [2] was -2.34 °C. Further, the EC50 in experiment [3] and in experiment [4] was above 50 µM each time. For the same molecule, the Kd in experiment [5] came to 187 µM.

Regarding `NC(=O)c1ccc(OCc2c(C(=O)O)sc3c(Cl)cccc23)cc1` [Example 12, 3-((4-Carbamoylphenoxy)methyl)-7-chlorobenzo[b]thiophene-2-carboxylic acid], the “DSF huSTING (HAQ) ΔTm (° C.)” value in experiment [1] is 9 °C. The ΔTm at 100 µM in experiment [2] was determined as 3.29 °C. The concentration for a half-maximal effect (EC50) in experiment [3] and in experiment [4] was above 50 µM in each case. Also, the dissociation constant (Kd) in experiment [5] is 5.95 µM.

On to `NC(=O)c1ccc(OCc2c(C(=O)O)sc3ccc(Cl)cc23)cc1` [Example 14, 3-((4-Carbamoylphenoxy)methyl)-5-chlorobenzo[b]thiophene-2-carboxylic acid], for which the “DSF huSTING (HAQ) ΔTm (° C.)” value in experiment [1] amounted to 0.09 °C. The thermal shift (ΔTm) at 100 µM in experiment [2] was -4.26 °C. Also, the concentration for a half-maximal effect (EC50) in experiment [3] and in experiment [4] was above 50 µM in each case. Besides, in experiment [5], the Kd came to 120 µM.

Turning to `NC(=O)c1ccc(OCc2c(C(=O)O)sc3ccc(F)c(F)c23)cc1` [Example 16, 3-((4-Carbamoylphenoxy)methyl)-4,5-difluorobenzo[b]thiophene-2-carboxylic acid], in experiment [1], the “DSF huSTING (HAQ) ΔTm (° C.)” value was determined as 10.12 °C. In addition, the ΔTm at 100 µM in experiment [2] was determined as 3.49 °C. Further, the 50% effective concentration (EC50) in experiment [3] and in experiment [4] was above 50 µM each time. Moreover, the Kd in experiment [5] was determined as 2.19 µM.

For the molecule `Cc1ccc2sc(C(=O)O)c(COc3ccc(C(N)=O)cc3)c2c1Cl` [Example 18, 3-((4-Carbamoylphenoxy)methyl)-4-chloro-5-methylbenzo[b]thiophene-2-carboxylic acid], in experiment [1], the “DSF huSTING (HAQ) ΔTm (° C.)” value was 6.29 °C. Further, the ΔTm at 100 µM in experiment [2] is -0.6 °C. The EC50 in experiment [3] and in experiment [4] was above 50 µM throughout. For the same molecule, in experiment [5], the Kd is 15.9 µM.

As for `NC(=O)c1ccc(OCc2c(C(=O)O)sc3cc(Cl)cc(F)c23)cc1` [Example 20, 3-((4-Carbamoylphenoxy)methyl)-6-chloro-4-fluorobenzo[b]thiophene-2-carboxylic acid], the “DSF huSTING (HAQ) ΔTm (° C.)” value in experiment [1] is 5.83 °C. The ΔTm at 100 µM in experiment [2] is -2.76 °C. In addition, the EC50 in experiment [3] and in experiment [4] was above 50 µM throughout. The equilibrium dissociation constant (Kd) in experiment [5] came to 34 µM.

In the case of `NC(=O)c1ccc(OCc2c(C(=O)O)sc3cccc(Br)c23)cc1` [Example 22, 4-Bromo-3-((4-carbamoylphenoxy)methyl)benzo[b]thiophene-2-carboxylic acid], the “DSF huSTING (HAQ) ΔTm (° C.)” value in experiment [1] was 17.08 °C. For the same molecule, in experiment [2], the ΔTm at 100 µM was determined as 7.61 °C. Further, the half-maximal effective concentration (EC50) in experiment [3] is above 50 µM; in experiment [4] it was 41 µM. Moreover, the Kd in experiment [5] came out at 0.755 µM.

For `NC(=O)c1ccc(OCc2c(C(=O)O)sc3cccnc23)cc1` [Example 24, 3-((4-Carbamoylphenoxy)methyl)thieno[3,2-b]pyridine-2-carboxylic acid], the ΔTm at 100 µM in experiment [1] is 0.6 °C; in experiment [2] it was -0.35 °C. For the same molecule, the EC50 in experiment [3] and in experiment [4] was above 50 µM throughout. Moreover, in experiment [5], the Kd is above 10000 µM.

`NC(=O)c1ccc(OCc2c(C(=O)O)sc3cccc(Cl)c23)cc1F` [Example 26, 3-((4-Carbamoyl-3-fluorophenoxy)methyl)-4-chlorobenzo[b]thiophene-2-carboxylic acid]: the “DSF huSTING (HAQ) ΔTm (° C.)” value in experiment [1] stood at 10.82 °C. Further, the ΔTm at 100 µM in experiment [2] amounted to 3.79 °C. Moreover, the 50% effective concentration (EC50) in experiment [3] and in experiment [4] was above 50 µM each time. Further, the equilibrium dissociation constant (Kd) in experiment [5] amounted to 1.6 µM.

On to `NC(=O)c1c(F)cc(OCc2c(C(=O)O)sc3cccc(Cl)c23)cc1F` [Example 28, 3-((4-Carbamoyl-3,5-difluorophenoxy)methyl)-4-chlorobenzo[b]thiophene-2-carboxylic acid], for which the “DSF huSTING (HAQ) ΔTm (° C.)” value in experiment [1] came to 6.93 °C. The ΔTm at 100 µM in experiment [2] is 1.19 °C. Besides, the half-maximal effective concentration (EC50) in experiment [3] and in experiment [4] was above 50 µM each time. The Kd in experiment [5] amounted to 10.9 µM.

Take `COc1cc(C(N)=O)ccc1OCc1c(C(=O)O)sc2cccc(Cl)c12` [Example 30, 3-((4-Carbamoyl-2-methoxyphenoxy)methyl)-4-chlorobenzo[b]thiophene-2-carboxylic acid]: the “DSF huSTING (HAQ) ΔTm (° C.)” value in experiment [1] came to 5.4 °C. The ΔTm at 100 µM in experiment [2] was -0.32 °C. Moreover, the EC50 in experiment [3] was 36.3 µM; in experiment [4], above 50 µM. Further, the dissociation constant Kd in experiment [5] turned out to be 22.1 µM.

As to `NC(=O)c1ccc(OCc2c(C(=O)O)sc3cc(F)cc(F)c23)cc1` [Example 32, 3-((4-Carbamoylphenoxy)methyl)-4,6-difluorobenzo[b]thiophene-2-carboxylic acid], the “DSF huSTING (HAQ) ΔTm (° C.)” value in experiment [1] came to 7.23 °C. Further, the ΔTm at 100 µM in experiment [2] came out at 0.63 °C. The EC50 in experiment [3] and in experiment [4] was above 50 µM in each case. Moreover, the Kd in experiment [5] came out at 7.75 µM.

In the case of `COc1cccc2sc(C(=O)O)c(COc3ccc(C(N)=O)cc3)c12` [Example 34, 3-((4-Carbamoylphenoxy)methyl)-4-methoxybenzo[b]thiophene-2-carboxylic acid], the “DSF huSTING (HAQ) ΔTm (° C.)” value in experiment [1] turned out to be 10.07 °C. For the same molecule, in experiment [2], the ΔTm at 100 µM was determined as 3.76 °C. Moreover, the EC50 in experiment [3] and in experiment [4] was above 50 µM each time. Further, the Kd in experiment [5] turned out to be 2.48 µM.

Consider `NC(=O)c1ccc(OCc2c(C(=O)O)sc3cccc(C(F)(F)F)c23)cc1` [Example 36, 3-((4-Carbamoylphenoxy)methyl)-4-(trifluoromethyl)benzo[b]thiophene-2-carboxylic acid], for which the “DSF huSTING (HAQ) ΔTm (° C.)” value in experiment [1] is 12.31 °C. The ΔTm at 100 µM in experiment [2] was determined as 5.96 °C. Also, the EC50 in experiment [3] and in experiment [4] was above 50 µM throughout. Further, the equilibrium dissociation constant (Kd) in experiment [5] was 1.33 µM.

Take `COc1cc(C(N)=O)cc(OC)c1OCc1c(C(=O)O)sc2cccc(Cl)c12` [Example 42, 3-((4-Carbamoyl-2,6-dimethoxyphenoxy)methyl)-4-chlorobenzo[b]thiophene-2-carboxylic acid]: in experiment [1], the “DSF huSTING (HAQ) ΔTm (° C.)” value was determined as 2.83 °C. Further, the ΔTm at 100 µM in experiment [2] was -0.64 °C. The Kd in experiment [5] came to 80.5 µM.

As for `N#Cc1cc(C(N)=O)ccc1OCc1c(C(=O)O)sc2cccc(Cl)c12` [Example 44, 3-((4-Carbamoyl-2-cyanophenoxy)methyl)-4-chlorobenzo[b]thiophene-2-carboxylic acid], in experiment [1], the “DSF huSTING (HAQ) ΔTm (° C.)” value was found to be 7.64 °C. Also, in experiment [2], the shift in melting temperature (ΔTm) at 100 µM was determined as 1.3 °C. Further, in experiment [5], the dissociation constant (Kd) is 7.95 µM.

As to `CCOC(=O)c1sc2cccc(F)c2c1COc1ccc(C(N)=O)cc1F` [Example 58, Ethyl 3-((4-carbamoyl-2-fluorophenoxy)methyl)-4-fluorobenzo[b]thiophene-2-carboxylate], in experiment [1], the ΔTm at 100 µM was determined as 0.43 °C. Also, the EC50 in experiment [3] came to 9.19 µM; in experiment [4], 27.7 µM. Further, the Kd in experiment [5] is above 10000 µM.

For `N#Cc1cccc2sc(C(=O)O)c(COc3ccc(C(N)=O)cc3)c12` [Example 63, 3-((4-Carbamoylphenoxy)methyl)-4-cyanobenzo[b]thiophene-2-carboxylic acid], the “DSF huSTING (HAQ) ΔTm (° C.)” value in experiment [1] was found to be 8.07 °C. In addition, in experiment [2], the thermal shift (ΔTm) at 100 µM turned out to be 1.88 °C. Also, the Kd in experiment [5] worked out at 9.15 µM.

As to `COc1cc(C(N)=O)cc(C)c1OCc1c(C(=O)O)sc2cccc(Cl)c12` [Example 73, 3-((4-carbamoyl-2-methoxy-6-methylphenoxy)methyl)-4-chlorobenzo[b]thiophene-2-carboxylic acid], the “DSF huSTING (HAQ) ΔTm (° C.)” value in experiment [1] worked out at 1.79 °C. The ΔTm at 100 µM in experiment [2] was -1.03 °C. The Kd in experiment [5] turned out to be 67 µM.

`CCOC(=O)c1sc2cccc(F)c2c1CCc1ccc(C(N)=O)cc1` [Example 87, Ethyl 3-(4-carbamoylphenethyl)-4-fluorobenzo[b]thiophene-2-carboxylate]: the “DSF huSTING (HAQ) ΔTm (° C.)” value in experiment [1] was found to be 0.54 °C. The EC50 in experiment [3] and in experiment [4] was above 50 µM throughout. The Kd in experiment [5] stood at 3000 µM.
